Measured values published in patent US10030020B2, “Spirocycle compounds and methods of making and using same” (Abide Therapeutics, Inc., priority 2016, dated 2018).

Columns and labels:
FAAH [1] = biological target: T1, FAAH (Mus musculus (Mouse), UniProt O08914); assay: Mouse brain proteomes from inhibitor treated mice (oral gavage, sacrificed 4 h after administration, ABPP analysis), FAAH; assay type: in vivo, mouse (C57Bl/6J); conditions: 5 mg/kg oral gavage
Procedure, shortened: (§1)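 Values give % inhibition in brain after a 5 mg/kg oral gavage dose to wild-type C57Bl/6J mice, with vehicle e.g. PEG400/Ethanol/PBS (7/2/1). Animals were killed 4 h post-dose and brain proteome activity was read by ABPP.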

MAGL [2] = biological target: T2, MAGL (Mus musculus (Mouse), UniProt O35678); assay: In vitro competitive activity-based protein profiling (mouse brain membrane fraction or cell lysates), MAGL band; assay type: biochemical; conditions: mouse proteome; for inhibition at 1 µM: read-out: MAGL % Inh 1 μM (mouse); for IC50: competitive ABPP
Description: In Vitro Competitive Activity-Based Protein Profiling.
Proteomes (mouse brain membrane fraction or cell lysates) (50 μL, 1.0 mg/mL total protein concentration) were preincubated with varying concentrations of inhibitors at 37° C. After 30 min, FP—Rh (1.0 μL, 50 μM in DMSO) was added and the mixture was incubated for another 30 min at 37° C. Reactions were quenched with SDS loading buffer (50 μL-4×) and run on SDS-PAGE.

FAAH [3] = biological target: T1, FAAH; assay: In vitro competitive activity-based protein profiling (mouse brain membrane fraction or cell lysates), FAAH band; assay type: biochemical; conditions: mouse proteome; for inhibition at 1 µM: read-out: FAAH % Inh 1 μM (mouse); for IC50: competitive ABPP
Procedure, shortened: (§2)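 Mouse proteome samples (brain membrane fraction or cell lysate, 1.0 mg/mL protein) were pretreated with varying inhibitor concentrations and subsequently probed with fluorophosphonate-rhodamine, each step lasting 30 min at 37° C. Labelled proteins were separated by SDS-PAGE, and band fluorescence was imaged and quantified.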

ABHD6 [4] = biological target: T3, ABHD6 (Mus musculus (Mouse), UniProt Q8R2Y0); assay: In vitro competitive activity-based protein profiling (mouse brain membrane fraction or cell lysates), ABHD6 band; assay type: biochemical; conditions: mouse proteome; for inhibition at 1 µM: read-out: ABHD6 % Inh 1 μM (mouse); for IC50: competitive ABPP
Procedure, shortened: as §2

ABHD6 [5] = biological target: T3, ABHD6; assay: Mouse brain proteomes from inhibitor treated mice (oral gavage, sacrificed 4 h after administration, ABPP analysis), ABHD6; assay type: in vivo, mouse (C57Bl/6J); conditions: 5 mg/kg oral gavage
Procedure, shortened: as §1

MAGL [6] = biological target: T2, MAGL; assay: Mouse brain proteomes from inhibitor treated mice (oral gavage, sacrificed 4 h after administration, ABPP analysis); assay type: in vivo, mouse (C57Bl/6J); conditions: 5 mg/kg oral gavage
Procedure, shortened: as §1

T1 sequence (O08914 whole entry): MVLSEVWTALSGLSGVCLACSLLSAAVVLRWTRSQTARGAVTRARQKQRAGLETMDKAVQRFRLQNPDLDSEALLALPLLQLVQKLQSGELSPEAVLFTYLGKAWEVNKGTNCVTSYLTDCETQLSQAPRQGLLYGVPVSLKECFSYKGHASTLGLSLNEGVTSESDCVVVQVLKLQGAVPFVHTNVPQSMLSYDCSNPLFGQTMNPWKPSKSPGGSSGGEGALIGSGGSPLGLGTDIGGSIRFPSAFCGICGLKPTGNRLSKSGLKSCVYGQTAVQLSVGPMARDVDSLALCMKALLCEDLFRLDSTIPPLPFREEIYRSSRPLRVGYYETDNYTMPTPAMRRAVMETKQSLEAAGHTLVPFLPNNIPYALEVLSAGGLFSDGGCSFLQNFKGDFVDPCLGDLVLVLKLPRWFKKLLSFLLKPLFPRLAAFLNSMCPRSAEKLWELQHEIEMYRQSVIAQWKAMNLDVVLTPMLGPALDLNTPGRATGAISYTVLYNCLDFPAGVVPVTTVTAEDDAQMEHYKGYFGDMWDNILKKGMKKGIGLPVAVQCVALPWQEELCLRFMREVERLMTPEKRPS
T3 sequence (Q8R2Y0 whole entry): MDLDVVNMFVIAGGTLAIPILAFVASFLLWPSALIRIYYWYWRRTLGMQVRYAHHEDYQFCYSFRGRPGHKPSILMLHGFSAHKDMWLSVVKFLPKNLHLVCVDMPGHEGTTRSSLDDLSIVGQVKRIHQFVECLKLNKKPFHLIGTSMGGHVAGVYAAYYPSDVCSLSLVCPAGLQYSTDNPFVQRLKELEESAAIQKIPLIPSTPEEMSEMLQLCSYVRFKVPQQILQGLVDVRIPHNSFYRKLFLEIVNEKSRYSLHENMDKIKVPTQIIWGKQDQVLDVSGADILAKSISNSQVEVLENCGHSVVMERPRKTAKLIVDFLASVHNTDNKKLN
T2 sequence (O35678 whole entry): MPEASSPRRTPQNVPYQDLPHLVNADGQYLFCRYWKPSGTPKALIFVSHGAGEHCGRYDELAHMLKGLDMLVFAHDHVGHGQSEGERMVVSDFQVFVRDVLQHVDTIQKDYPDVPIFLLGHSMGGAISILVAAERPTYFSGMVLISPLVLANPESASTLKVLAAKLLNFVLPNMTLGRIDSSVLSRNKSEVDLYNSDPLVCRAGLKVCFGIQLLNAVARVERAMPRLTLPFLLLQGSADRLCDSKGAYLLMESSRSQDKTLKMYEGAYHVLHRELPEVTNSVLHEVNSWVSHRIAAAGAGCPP

Row | FAAH % Inh 5 mg/kg (mouse) (FAAH [1]) | inhibition at 1 µM (MAGL [2]) | IC50 (MAGL [2]) | inhibition at 1 µM (FAAH [3]) | IC50 (FAAH [3]) | inhibition at 1 µM (ABHD6 [4]) | IC50 (ABHD6 [4]) | ABHD6 % Inh 5 mg/kg (mouse) (ABHD6 [5]) | MAGL % Inh 5 mg/kg (mouse) (MAGL [6]) | Structure (SMILES)
1 | # (# is <25%) | > 75% | < 100 nM | < 25% | > 1000 nM | < 25% | > 1000 nM | # (# is <25%) | ### (### is ≥75%) | CCc1cc(CN2CCCC23CCN(C(=O)OC(C(F)(F)F)C(F)(F)F)CC3)ccc1F [Example 150, 1,1,1,3,3,3-Hexafluoropropan-2-yl 1-(3-ethyl-4-fluorobenzyl)-1,8-diazaspiro[4.5]decane-8-carboxylate]
2 | # (# is <25%) | > 75% | < 100 nM | < 25% | > 1000 nM | < 25% | > 1000 nM | # (# is <25%) | ### (### is ≥75%) | O=C(OC(C(F)(F)F)C(F)(F)F)N1CCC2(CCCN2Cc2ccc(Cl)cc2N2CCCC2)CC1 [Example 76, 1,1,1,3,3,3-Hexafluoropropan-2-yl 1-(4-chloro-2-(pyrrolidin-1-yl)benzyl)-1,8-diazaspiro[4.5]decane-8-carboxylate]
3 | # (# is <25%) | > 75% | < 100 nM | < 25% | > 1000 nM | < 25% | > 1000 nM | # (# is <25%) | ### (### is ≥75%) | O=C(OC(C(F)(F)F)C(F)(F)F)N1CCC2(CCN(Cc3ccc(Cl)cc3N3CCCCC3)C2)CC1 [Example 24, 1,1,1,3,3,3-Hexafluoropropan-2-yl 2-(4-chloro-2-(piperidin-1-yl)benzyl)-2,8-diazaspiro[4.5]decane-8-carboxylate]
4 | # (# is <25%) | > 75% | < 100 nM | < 25% | > 1000 nM | 25 to 75% | > 1000 nM | # (# is <25%) | ### (### is ≥75%) | O=C(OC(C(F)(F)F)C(F)(F)F)N1CCC2(CCCN2Cc2ccc(C(F)(F)F)c(Cl)c2)CC1 [Example 183, 1,1,1,3,3,3-Hexafluoropropan-2-yl 1-(3-chloro-4-(trifluoromethyl)benzyl)-1,8-diazaspiro[4.5]decane-8-carboxylate]
5 | # (# is <25%) | > 75% | < 100 nM | < 25% | > 1000 nM | < 25% | > 1000 nM | # (# is <25%) | ### (### is ≥75%) | O=C(OC(C(F)(F)F)C(F)(F)F)N1CCC2(CCCN2Cc2ccc(Cl)c(C(F)(F)F)c2)CC1 [Example 184, 1,1,1,3,3,3-Hexafluoropropan-2-yl 1-(4-chloro-3-(trifluoromethyl)benzyl)-1,8-diazaspiro[4.5]decane-8-carboxylate]
6 | # (# is <25%) | > 75% | < 100 nM | < 25% | > 1000 nM | < 25% | > 1000 nM | # (# is <25%) | ### (### is ≥75%) | O=C(OC(C(F)(F)F)C(F)(F)F)N1CCC2(CCCN2Cc2ccc(Cl)c(N3CCCC3)c2)CC1 [Example 132, 1,1,1,3,3,3-Hexafluoropropan-2-yl 1-(4-chloro-3-(pyrrolidin-1-yl)benzyl)-1,8-diazaspiro[4.5]decane-8-carboxylate]

Row | Structure (SMILES) | FAAH % Inh 5 mg/kg (mouse) (FAAH [1]) | inhibition at 1 µM (MAGL [2]) | IC50 (MAGL [2]) | inhibition at 1 µM (FAAH [3]) | IC50 (FAAH [3]) | inhibition at 1 µM (ABHD6 [4]) | IC50 (ABHD6 [4]) | ABHD6 % Inh 5 mg/kg (mouse) (ABHD6 [5]) | MAGL % Inh 5 mg/kg (mouse) (MAGL [6])
7 | COc1ccc(F)cc1CN1CCCC12CCN(C(=O)OC(C(F)(F)F)C(F)(F)F)CC2 [Example 8, 1,1,1,3,3,3-Hexafluoropropan-2-yl 1-(5-fluoro-2-methoxybenzyl)-1,8-diazaspiro[4.5]decane-8-carboxylate] | ## (## is equal to or greater than 25% but less than 75%) | – | < 100 nM | – | > 1000 nM | – | > 1000 nM | ## (## is equal to or greater than 25% but less than 75%) | ### (### is ≥75%)
8 | O=C(OC(C(F)(F)F)C(F)(F)F)N1CCC2(CCN(Cc3cccc(Cl)c3N3CCC(F)(F)CC3)C2)CC1 [Example 64, 1,1,1,3,3,3-Hexafluoropropan-2-yl 2-(3-chloro-2-(4,4-difluoropiperidin-1-yl)benzyl)-2,8-diazaspiro[4.5]decane-8-carboxylate] | # (# is <25%) | > 75% | < 100 nM | < 25% | > 1000 nM | < 25% | > 1000 nM | # (# is <25%) | ## (## is equal to or greater than 25% but less than 75%)
9 | O=C(OC(C(F)(F)F)C(F)(F)F)N1CCC2(CCN(Cc3c(N4CC5COCC5C4)cccc3C(F)(F)F)C2)CC1 (stereo not drawn) [Example 18, 1,1,1,3,3,3-Hexafluoropropan-2-yl 2-(2-(tetrahydro-1H-furo[3,4-c]pyrrol-5(3H)-yl)-6-(trifluoromethyl)benzyl)-2,8-diazaspiro[4.5]decane-8-carboxylate] | # (# is <25%) | > 75% | < 100 nM | < 25% | > 1000 nM | 25 to 75% | > 1000 nM | # (# is <25%) | ## (## is equal to or greater than 25% but less than 75%)
10 | CC1(C)CC2(CCN(C(=O)OC(C(F)(F)F)C(F)(F)F)CC2)CN1Cc1cccc(Cl)c1N1CCOCC1 [Example 54, 1,1,1,3,3,3-Hexafluoropropan-2-yl 2-(3-chloro-2-morpholinobenzyl)-3,3-dimethyl-2,8-diazaspiro[4.5]decane-8-carboxylate] | # (# is <25%) | > 75% | < 100 nM | < 25% | > 1000 nM | < 25% | > 1000 nM | # (# is <25%) | ## (## is equal to or greater than 25% but less than 75%)
11 | CCN1CCCc2cccc(CN3CCC4(CCN(C(=O)OC(C(F)(F)F)C(F)(F)F)CC4)C3)c21 [Example 71, 1,1,1,3,3,3-Hexafluoropropan-2-yl 2-((1-ethyl-1,2,3,4-tetrahydroquinolin-8-yl)methyl)-2,8-diazaspiro[4.5]decane-8-carboxylate] | # (# is <25%) | > 75% | < 100 nM | < 25% | > 1000 nM | 25 to 75% | > 1000 nM | ## (## is equal to or greater than 25% but less than 75%) | ### (### is ≥75%)
12 | O=C(OC(C(F)(F)F)C(F)(F)F)N1CCC2(CCCN2Cc2ccc(Cl)cc2N2CCCCC2)CC1 [Example 74, 1,1,1,3,3,3-Hexafluoropropan-2-yl 1-(4-chloro-2-(piperidin-1-yl)benzyl)-1,8-diazaspiro[4.5]decane-8-carboxylate] | # (# is <25%) | > 75% | < 100 nM | < 25% | > 1000 nM | 25 to 75% | > 1000 nM | # (# is <25%) | ## (## is equal to or greater than 25% but less than 75%)
13 | O=C(OC(C(F)(F)F)C(F)(F)F)N1CCC2(CCCN2Cc2cc(OC3CCS(=O)(=O)CC3)cc(C(F)(F)F)c2)CC1 [Example 176, 1,1,1,3,3,3-Hexafluoropropan-2-yl 1-(3-((1,1-dioxidotetrahydro-2H-thiopyran-4-yl)oxy)-5-(trifluoromethyl)benzyl)-1,8-diazaspiro[4.5]decane-8-carboxylate] | # (# is <25%) | > 75% | < 100 nM | < 25% | > 1000 nM | < 25% | > 1000 nM | # (# is <25%) | ## (## is equal to or greater than 25% but less than 75%)
14 | CC(=O)N1CCN(c2cc(C(F)(F)F)ccc2CN2CCCC23CCN(C(=O)OC(C(F)(F)F)C(F)(F)F)CC3)CC1 [Example 88, 1,1,1,3,3,3-Hexafluoropropan-2-yl 1-(2-(4-acetylpiperazin-1-yl)-4-(trifluoromethyl)benzyl)-1,8-diazaspiro[4.5]decane-8-carboxylate] | # (# is <25%) | > 75% | < 100 nM | < 25% | > 1000 nM | < 25% | > 1000 nM | # (# is <25%) | ## (## is equal to or greater than 25% but less than 75%)
